As usually defined, the Ki is the dissociation constant of the complex between target and ligand, obtained from inhibition or displacement.

We go through 3 molecules from US11285147B2, “Neuroprotective agents for treatment of neurodegenerative diseases” (WAYNE STATE UNIVERSITY, priority 2018, dated 2022).

One experiment concerns the target αSN (alpha synuclein) (Homo sapiens, UniProt P37840). As to the kind of experiment: Inhibition of αSN fibrillization, ThT fluorescence assay. The format is biochemical. Here is the method:
FIGS. 2A-B. (A) Inhibition of aSN fibrillization by D-687 and D-688. The drugs were incubated with aSN over a period of six days and the fibrilization was measured by ThT fluorescence assay. Data Values shown are means±SEMs of three independent experiments. (B) PC12 cells were treated with 10 μM prefabricated aSN aggregates formed in presence of drugs collected at day 0 and day 6. Values shown are means±SEMs of three independent experiments performed in 4-6 replicates. One way ANOVA analysis followed by Tukey's Multiple Comparison post hoc test were performed. (*p<0.01 compared to the control).
We assessed the ability of our compounds, D-687 and D-688, to alter aggregation and cytotoxicity after co-incubating αSN with these drugs for 6 days followed by evaluation of ThT fluorescence activity and cell viability experiment with the PC12 cells. […] In order to maintain identical condition, cellular viability was determined by using samples from various experiments diluted to maintain a final concentration of 10 μM of αSN and 20 μM of drugs.
FIG. 2 provides (A) Inhibition of aSN fibrillization by D-687 and D-688. The drugs were incubated with aSN over a period of six days and the fibrilization was measured by ThT fluorescence assay. Data Values shown are means±SEMs of three independent experiments. […]

For a further experiment, the target named is T1, Aβ1-42 peptide (Homo sapiens, UniProt P05067).
T1 construct: disaggregation activity of Aβ1-42 peptide
The experiment is described as follows: Inhibition of Aβ1-42 aggregation, ThT fluorescence. The experiment is classed as biochemical. As to conditions: Aβ1-42 10 μM, test compounds 20 μM, 24 h. The protocol:
(§1) FIGS. 3A and 3B. Inhibition and dissociation of Aβ1-42 oligomer formation by: a) ThT fluorescence of Aβ1-42 (10 μM) with or without incubation with test compounds (20 μM) for 24 h. The ThT fluorescence of Aβ1-42 at 0 h was taken as 100%. b) Aβ1-42 fibrils (10 μM) were incubated with test compounds (20 μM) for a period of 24 h. The ThT fluorescence of Aβ1-42 aggregates at 0 h was considered as 100%
(§2) FIGS. 3A and 3B show inhibition and dissociation of Aβ1-42 oligomer formation by: a) ThT fluorescence of Aβ1-42 (10 μM) with or without incubation with test compounds (20 μM) for 24 h. The ThT fluorescence of Aβ1-42 at 0 h was taken as 100%. b) Aβ1-42 fibrils (10 μM) were incubated with test compounds (20 μM) for a period of 24 h. The ThT fluorescence of Aβ1-42 aggregates at 0 h was considered as 100%
(§3) Similar to the effect of the drugs on α-syn, interaction of compounds with Aβ1-42 peptide clearly indicated a significant effect in inhibiting aggregation in a time dependent manner as indicated by decrease in ThT activity (FIG. 3a). Similarly, test compounds were able to decrease ThT activity of preformed Aβ aggregates in a time dependent manner, reflecting its effect in disrupting structure of aggregates (FIG. 3b). On the other hand, incubation of aggregates itself led to a gradual increase in ThT activity (FIG. 3b).

In the next experiment the target is T2, Aβ1-42 fibrils (Homo sapiens, UniProt P05067).
T2 construct: disaggregation activity of Aβ1-42 peptide
As to the kind of experiment: Dissociation of preformed Aβ1-42 aggregates, ThT fluorescence. The format is biochemical. As to conditions: Aβ1-42 fibrils 10 μM, test compounds 20 μM, 24 h. The protocol:
as §1, §2, §3

A further experiment deals with D3 receptor (UniProt P19020). The experiment is classed as binding. As to conditions: read-out: Ki (nM) D3, [3H]spiroperidol; cloned D3 in HEK-293 cells; mean ± SEM of 3-6 experiments.
The next experiment has as its target D2L receptor (Rattus norvegicus, UniProt P61169). The experiment is described as follows: biochemical.

T1 sequence (P05067 672-713 limits assumed): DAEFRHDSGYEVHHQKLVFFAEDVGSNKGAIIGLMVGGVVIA
T2 sequence (P05067 672-713 limits assumed): as above
Chain of D2L receptor (P61169 whole entry): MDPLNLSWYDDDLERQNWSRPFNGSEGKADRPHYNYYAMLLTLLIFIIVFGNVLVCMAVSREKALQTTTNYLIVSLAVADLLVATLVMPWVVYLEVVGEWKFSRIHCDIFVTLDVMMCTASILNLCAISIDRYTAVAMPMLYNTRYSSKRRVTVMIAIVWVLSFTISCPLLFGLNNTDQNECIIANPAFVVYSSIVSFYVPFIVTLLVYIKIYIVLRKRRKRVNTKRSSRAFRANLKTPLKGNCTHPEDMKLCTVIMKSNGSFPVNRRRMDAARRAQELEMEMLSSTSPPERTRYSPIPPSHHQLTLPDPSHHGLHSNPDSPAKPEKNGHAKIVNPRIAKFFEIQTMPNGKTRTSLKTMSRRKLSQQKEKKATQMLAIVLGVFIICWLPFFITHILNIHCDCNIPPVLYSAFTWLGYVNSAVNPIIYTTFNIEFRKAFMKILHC

Regarding “4′-[4-(2-Diisopropylamino-ethyl)-piperazin-1-yl]-biphenyl-3,4-diol [Compound D-687]”, the “Inhibition of aggregation of aSN protein (overall conclusion)” value on αSN (alpha synuclein) is “potently inhibited aggregation”. Further, the “Inhibition of aggregation of Aβ1-42 peptide” value on Aβ1-42 peptide is given as “potently inhibited aggregation”. For the same molecule, the “Disaggregation of preformed Aβ1-42 aggregates” value at Aβ1-42 fibrils is listed as “disaggregate”.

As to `CCCN(CCc1cc(O)c(CCN(CCC)[C@H]2CCc3nc(N)sc3C2)cc1O)[C@H]1CCc2nc(N)sc2C1` [12 (D-673), 2,5-bis(2-(((S)-2-amino-4,5,6,7-tetrahydrobenzo[d]thiazol-6-yl)(propyl)amino)-ethyl)benzene-1,4-diol], the figures for the Ki on D3 receptor and on D2L receptor were 6.87 ± 0.11 nM and 54.7 ± 3.3 nM, respectively.

With `CCN(CC)CCN1CCN(c2ccc(-c3ccc(O)c(O)c3)cc2)CC1` [Compound D690, 4′-[4-(2-Diethylamino-ethyl)-piperazin-1-yl]-biphenyl-3,4-diol], the “Inhibition of aggregation of aSN protein (overall conclusion)” value at αSN (alpha synuclein) is reported as “potently inhibited aggregation”. For the same molecule, the “Inhibition of aggregation of Aβ1-42 peptide” value at Aβ1-42 peptide is reported as “potently inhibited aggregation”. Besides, at Aβ1-42 fibrils, the “Disaggregation of preformed Aβ1-42 aggregates” value was “disaggregate”.
